Experiments:
[1] = test system: Hepatotoxicity;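 on HepSE bilirubinemia: bilirubinemia hepatic side effect score drawn from the DILIps training data, a prediction system for drug-induced liver injury; call rule not given here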;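 on HepSE cholecystitis: Cholecystitis-related hepatic side effect score drawn from the DILIps (drug-induced liver injury prediction) training data set; call rule not given here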;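 on HepSE cholelithiasis: hepatic side effect score for cholelithiasis, drawn from the DILIps training data for predicting drug-induced liver injury; call rule not given here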;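 on HepSE cirrhosis: cirrhosis hepatic side effect score taken from the DILIps (drug-induced liver injury prediction) training set; call rule not given here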;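 on HepSE elevated liver function tests: hepatic side effect score for raised liver function tests, as recorded in the DILIps training set used for predicting drug-induced liver injury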; on HepSE hepatic failure: call rule not given here; on HepSE liver disease: call rule not given here
[2] = test system: Hepatotoxicity; remark: listed apart in the source;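 on HepSE bilirubinemia: bilirubinemia hepatic side effect score drawn from the DILIps training data, a prediction system for drug-induced liver injury; call rule not given here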;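 on HepSE cholecystitis: Cholecystitis-related hepatic side effect score drawn from the DILIps (drug-induced liver injury prediction) training data set; call rule not given here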;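 on HepSE cholelithiasis: hepatic side effect score for cholelithiasis, drawn from the DILIps training data for predicting drug-induced liver injury; call rule not given here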;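 on HepSE cirrhosis: cirrhosis hepatic side effect score taken from the DILIps (drug-induced liver injury prediction) training set; call rule not given here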;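 on HepSE elevated liver function tests: hepatic side effect score for raised liver function tests, as recorded in the DILIps training set used for predicting drug-induced liver injury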; on HepSE hepatic failure: call rule not given here; on HepSE liver disease: call rule not given here
[3] = test system: Hepatotoxicity; remark: listed apart in the source;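 on HepSE bilirubinemia: bilirubinemia hepatic side effect score drawn from the DILIps training data, a prediction system for drug-induced liver injury; call rule not given here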;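 on HepSE cholecystitis: Cholecystitis-related hepatic side effect score drawn from the DILIps (drug-induced liver injury prediction) training data set; call rule not given here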;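 on HepSE cholelithiasis: hepatic side effect score for cholelithiasis, drawn from the DILIps training data for predicting drug-induced liver injury; call rule not given here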;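 on HepSE cirrhosis: cirrhosis hepatic side effect score taken from the DILIps (drug-induced liver injury prediction) training set; call rule not given here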;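 on HepSE elevated liver function tests: hepatic side effect score for raised liver function tests, as recorded in the DILIps training set used for predicting drug-induced liver injury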; on HepSE hepatic failure: call rule not given here; on HepSE liver disease: call rule not given here
[4] = test system: Hepatotoxicity; remark: listed apart in the source;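 on HepSE bilirubinemia: bilirubinemia hepatic side effect score drawn from the DILIps training data, a prediction system for drug-induced liver injury; call rule not given here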;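 on HepSE cholecystitis: Cholecystitis-related hepatic side effect score drawn from the DILIps (drug-induced liver injury prediction) training data set; call rule not given here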;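 on HepSE cholelithiasis: hepatic side effect score for cholelithiasis, drawn from the DILIps training data for predicting drug-induced liver injury; call rule not given here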;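 on HepSE cirrhosis: cirrhosis hepatic side effect score taken from the DILIps (drug-induced liver injury prediction) training set; call rule not given here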;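 on HepSE elevated liver function tests: hepatic side effect score for raised liver function tests, as recorded in the DILIps training set used for predicting drug-induced liver injury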; on HepSE hepatic failure: call rule not given here; on HepSE liver disease: call rule not given here
[5] = test system: Hepatotoxicity; remark: listed apart in the source; on HepSE hepatic failure: call rule not given here
[6] = test system: Hepatotoxicity; remark: listed apart in the source; on HepSE hepatic failure: call rule not given here
[7] = test system: Hepatotoxicity; remark: listed apart in the source
[8] = test system: Hepatotoxicity; remark: listed apart in the source
[9] = test system: Hepatotoxicity; remark: listed apart in the source
[10] = test system: Hepatotoxicity; remark: listed apart in the source
[11] = test system: Hepatotoxicity; remark: listed apart in the source
[12] = test system: Hepatotoxicity; remark: listed apart in the source
[13] = test system: Hepatotoxicity; remark: listed apart in the source
[14] = test system: Hepatotoxicity; remark: listed apart in the source

## O=C1C(CC[S+]([O-])c2ccccc2)C(=O)N(c2ccccc2)N1c1ccccc1 (stereo unspecified) [SULFINPYRAZONE]
[1]
  HepSE_cholelithiasis: 0
[2]
  HepSE_liver fatty: 0
[3]
  HepSE_bilirubinemia: 0
[4]
  HepSE_hepatic failure: 0
[5]
  HepSE_cholecystitis: 0
[6]
  HepSE_elevated liver function tests: 0
[7]
  HepSE_cirrhosis: 0
[8]
  HepSE_liver disease: 0
[9]
  HepSE_liver function tests abnormal: 0
[10]
  HepSE_jaundice: 0
[11]
  HepSE_hepatic necrosis: 0
[12]
  HepSE_hepatomegaly: 0
[13]
  HepSE_Combined Scores: 0
[14]
  HepSE_hepatitis: 0

## Cc1noc(NS(=O)(=O)c2ccc(N)cc2)c1C [SULFISOXAZOLE]
[1]
  HepSE_cholelithiasis: 0
[2]
  HepSE_liver fatty: 0
[3]
  HepSE_bilirubinemia: 0
[4]
  HepSE_hepatic failure: 0
[5]
  HepSE_cholecystitis: 0
[6]
  HepSE_elevated liver function tests: 0
[7]
  HepSE_cirrhosis: 0
[8]
  HepSE_liver disease: 0
[9]
  HepSE_liver function tests abnormal: 0
[10]
  HepSE_jaundice: 1
[11]
  HepSE_hepatic necrosis: 0
[12]
  HepSE_hepatomegaly: 0
[13]
  HepSE_Combined Scores: 2
[14]
  HepSE_hepatitis: 1

## CCN(CC)CCNC(=O)c1c(C)[nH]c(/C=C2\C(=O)Nc3ccc(F)cc32)c1C [SUNITINIB]
[1]
  HepSE_cholelithiasis: 0
[2]
  HepSE_liver fatty: 0
[3]
  HepSE_bilirubinemia: 0
[4]
  HepSE_hepatic failure: 1
[5]
  HepSE_cholecystitis: 0
[6]
  HepSE_elevated liver function tests: 0
[7]
  HepSE_cirrhosis: 0
[8]
  HepSE_liver disease: 0
[9]
  HepSE_liver function tests abnormal: 0
[10]
  HepSE_jaundice: 1
[11]
  HepSE_hepatic necrosis: 0
[12]
  HepSE_hepatomegaly: 0
[13]
  HepSE_Combined Scores: 2
[14]
  HepSE_hepatitis: 0

## CC(C(=O)O)c1ccc(C(=O)c2cccs2)cc1 (stereo unspecified) [SUPROFEN]
[1]
  HepSE_cholelithiasis: 0
[2]
  HepSE_liver fatty: 0
[3]
  HepSE_bilirubinemia: 0
[4]
  HepSE_hepatic failure: 0
[5]
  HepSE_cholecystitis: 0
[6]
  HepSE_elevated liver function tests: 0
[7]
  HepSE_cirrhosis: 0
[8]
  HepSE_liver disease: 0
[9]
  HepSE_liver function tests abnormal: 0
[10]
  HepSE_jaundice: 0
[11]
  HepSE_hepatic necrosis: 0
[12]
  HepSE_hepatomegaly: 0
[13]
  HepSE_Combined Scores: 0
[14]
  HepSE_hepatitis: 0

## C[N+](C)(C)CCOC(=O)CCC(=O)OCC[N+](C)(C)C [SUXAMETHONIUM]
[1]
  HepSE_cholelithiasis: 0
[2]
  HepSE_liver fatty: 0
[3]
  HepSE_bilirubinemia: 0
[4]
  HepSE_hepatic failure: 0
[5]
  HepSE_cholecystitis: 0
[6]
  HepSE_elevated liver function tests: 0
[7]
  HepSE_cirrhosis: 0
[8]
  HepSE_liver disease: 0
[9]
  HepSE_liver function tests abnormal: 0
[10]
  HepSE_jaundice: 0
[11]
  HepSE_hepatic necrosis: 0
[12]
  HepSE_hepatomegaly: 0
[13]
  HepSE_Combined Scores: 0
[14]
  HepSE_hepatitis: 0

## Nc1c2c(nc3ccccc13)CCCC2 [TACRINE]
[1]; Liver
  HepSE_cholelithiasis: 1
[2]; Liver
  HepSE_liver fatty: 0
[3]; Liver
  HepSE_bilirubinemia: 0
[4]; Liver
  HepSE_hepatic failure: 0
[5]; Liver
  HepSE_cholecystitis: 1
[6]; Liver
  HepSE_elevated liver function tests: 0
[7]; Liver
  HepSE_cirrhosis: 0
[8]; Liver
  HepSE_liver disease: 0
[9]; Liver
  HepSE_liver function tests abnormal: 0
[10]; Liver
  HepSE_jaundice: 0
[11]; Liver
  HepSE_hepatic necrosis: 0
[12]; Liver
  HepSE_hepatomegaly: 0
[13]; Liver
  HepSE_Combined Scores: 2
[14]; Liver
  HepSE_hepatitis: 0

## C=CC[C@@H]1/C=C(\C)C[C@H](C)C[C@H](OC)[C@H]2O[C@@](O)(C(=O)C(=O)N3CCCC[C@H]3C(=O)O[C@H](/C(C)=C/[C@@H]3CC[C@@H](O)[C@H](OC)C3)[C@H](C)[C@@H](O)CC1=O)[C@H](C)C[C@@H]2OC [TACROLIMUS ANHYDROUS]
[1]
  HepSE_cholelithiasis: 0
[2]
  HepSE_liver fatty: 1
[3]
  HepSE_bilirubinemia: 1
[4]
  HepSE_hepatic failure: 0
[5]
  HepSE_cholecystitis: 0
[6]
  HepSE_elevated liver function tests: 0
[7]
  HepSE_cirrhosis: 0
[8]
  HepSE_liver disease: 1
[9]
  HepSE_liver function tests abnormal: 1
[10]
  HepSE_jaundice: 1
[11]
  HepSE_hepatic necrosis: 1
[12]
  HepSE_hepatomegaly: 0
[13]
  HepSE_Combined Scores: 7
[14]
  HepSE_hepatitis: 1

## CCOc1ccccc1OCCN[C@H](C)Cc1ccc(OC)c(S(N)(=O)=O)c1 [TAMSULOSIN]
[1]
  HepSE_cholelithiasis: 0
[2]
  HepSE_liver fatty: 0
[3]
  HepSE_bilirubinemia: 0
[4]
  HepSE_hepatic failure: 0
[5]
  HepSE_cholecystitis: 0
[6]
  HepSE_elevated liver function tests: 0
[7]
  HepSE_cirrhosis: 0
[8]
  HepSE_liver disease: 0
[9]
  HepSE_liver function tests abnormal: 0
[10]
  HepSE_jaundice: 0
[11]
  HepSE_hepatic necrosis: 0
[12]
  HepSE_hepatomegaly: 0
[13]
  HepSE_Combined Scores: 0
[14]
  HepSE_hepatitis: 0

## CCOC(=O)c1ccc(C#Cc2ccc3c(c2)C(C)(C)CCS3)nc1 [TAZAROTENE]
[1]
  HepSE_cholelithiasis: 0
[2]
  HepSE_liver fatty: 0
[3]
  HepSE_bilirubinemia: 0
[4]
  HepSE_hepatic failure: 0
[5]
  HepSE_cholecystitis: 0
[6]
  HepSE_elevated liver function tests: 0
[7]
  HepSE_cirrhosis: 0
[8]
  HepSE_liver disease: 0
[9]
  HepSE_liver function tests abnormal: 0
[10]
  HepSE_jaundice: 0
[11]
  HepSE_hepatic necrosis: 0
[12]
  HepSE_hepatomegaly: 0
[13]
  HepSE_Combined Scores: 0
[14]
  HepSE_hepatitis: 0

Reference: ChEMBL document CHEMBL1909294, “Translating clinical findings into knowledge in drug safety evaluation--drug induced liver injury prediction system (DILIps)” (PLoS Comput Biol, 2011)
